The target of this experiment is T1, AHR (Homo sapiens, UniProt P35869).
T1 sequence (P35869 11-848): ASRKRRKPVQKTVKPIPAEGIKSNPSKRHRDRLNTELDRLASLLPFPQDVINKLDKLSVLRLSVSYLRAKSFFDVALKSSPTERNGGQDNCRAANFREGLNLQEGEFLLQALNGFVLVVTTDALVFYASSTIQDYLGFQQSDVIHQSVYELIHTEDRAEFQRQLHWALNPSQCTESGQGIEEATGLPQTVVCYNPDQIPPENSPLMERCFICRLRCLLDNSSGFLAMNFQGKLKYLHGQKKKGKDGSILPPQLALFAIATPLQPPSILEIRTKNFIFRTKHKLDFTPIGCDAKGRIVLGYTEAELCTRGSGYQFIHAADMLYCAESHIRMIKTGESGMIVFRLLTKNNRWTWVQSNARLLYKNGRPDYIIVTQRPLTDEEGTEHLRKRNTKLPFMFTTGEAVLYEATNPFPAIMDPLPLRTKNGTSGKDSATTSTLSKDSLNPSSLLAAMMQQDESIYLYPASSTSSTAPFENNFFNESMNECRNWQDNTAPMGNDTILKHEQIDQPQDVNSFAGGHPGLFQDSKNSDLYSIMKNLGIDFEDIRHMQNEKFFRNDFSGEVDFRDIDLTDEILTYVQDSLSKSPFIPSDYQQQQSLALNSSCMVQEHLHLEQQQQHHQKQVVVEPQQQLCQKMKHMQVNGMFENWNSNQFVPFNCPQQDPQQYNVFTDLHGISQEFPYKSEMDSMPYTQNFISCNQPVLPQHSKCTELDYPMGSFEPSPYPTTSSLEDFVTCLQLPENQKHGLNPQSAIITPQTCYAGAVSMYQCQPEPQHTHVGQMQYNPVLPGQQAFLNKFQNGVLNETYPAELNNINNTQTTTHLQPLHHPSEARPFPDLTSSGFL
Put plainly: In vitro assay 1: AHR-luc transactivation assay, antagonism in human cell line (U87 glioblastoma cells, kynurenic acid prestimulated). It counts as cell-based. Particulars: firefly luciferase DRE reporter, 150 μM kynurenic acid, 20 hours, read-out: Assay 1: AHR-luc Hum Antagonism IC50. Also noted: U87 glioblastoma cells (ATCC) endogenously expressing AHR; host or cells: U87 glioblastoma cells, stably transfected with DRE-firefly luciferase and renilla reporter constructs only. Here is the method:
Transactivation Assay in Human Cell Line (In Vitro Assays 1 and 2)
Transactivation assays were carried out in U87 glioblastoma cells (ATCC) endogenously expressing AHR. In addition the cells were stably transfected with an AHR inducible firefly luciferase reporter gene construct that carried AHR-binding sites (DRE) in its promoter and a renilla reporter gene construct with constitutively active promoter. Kynurenic acid is an endogenous AHR activating ligand and was used to prestimulate test cells prior to testing the antagonistic properties of compounds.
In Vitro Assay 1: Antagonism in Human Cell Line
Cells in medium (tryptophan free RPMI, 1% FCS, 2 mM Glutamine) supplemented with 150 μM kynurenic acid were grown for 20 hours in absence (negative control) or presence of increasing concentrations of test compounds (typical dilutions: […], 0.25 nmol/L, 0.89 nmol/L; 3.1 nmol/L, 11 nmol/L, 38 nmol/L, 130 nmol/L, 470 nmol/L, 1.6 μmol/L, 5.7 μmol/L and 20 μmol/L in duplicates). As positive inhibition control cells supplemented with 150 μM kynurenic acid were incubated in presence of 5 μM Staurosporin. Normalization was done by positive and negative controls.
Firefly luciferase and Renilla activity was determined by the DualGlo Luciferase Assay System (Promega, #2920). Renilla activity was used to assess toxic effects of compounds.

Each structure is given as a SMILES string.

Consider 21 compounds from patent US11459312B2, “Sulphur substituted 3-oxo-2,3-dihydropyridazine-4-carboxamides” (Bayer Aktiengesellschaft, priority 2017, dated 2022).

For `C[C@@H](C[S+](C)[O-])NC(=O)c1cc(-c2ccc(C(F)(F)F)cc2)nn(-c2cnn(C)c2)c1=O` (mixture of isomers) [Example 23, 2-(1-Methyl-1H-pyrazol-4-yl)-N-[(2S)-1-(methylsulfinyl)propan-2-yl]-3-oxo-6-[4-(trifluoromethyl)phenyl]-2,3-dihydropyridazine-4-carboxamide], the IC50 turned out to be 0.00537 µM.
As for `C[S+]([O-])CCNC(=O)c1cc(-c2ccc(Cl)cc2)nn(-c2cccc(F)c2)c1=O` (stereo not drawn) [Example 51, 6-(4-Chlorophenyl)-2-(3-fluorophenyl)-N-[2-(methylsulfinyl)ethyl]-3-oxo-2,3-dihydropyridazine-4-carboxamide], the figure is 0.393 µM; as for `O=C(N[C@@H]1CS(=O)(=O)C[C@@H]1O)c1cc(-c2ccc(C(F)(F)F)cc2)nn(-c2cccnc2)c1=O` (single isomer, unassigned) [Example 17, (+)-N-[(cis)-4-hydroxy-1,1-dioxidotetrahydro-thiophen-3-yl]-3-oxo-2-(pyridin-3-yl)-6-[4-(trifluoromethyl)phenyl]-2,3-dihydropyridazine-4-carboxamide], 0.0162 µM.
As for `O=C(N[C@@H]1CS(=O)(=O)C[C@@H]1O)c1cc(-c2ccc(C(F)(F)F)cc2)nn(-c2cccnc2)c1=O` (single isomer, unassigned) [Example 18], the figure is 0.0382 µM.
The value for `CS(=N)(=O)CCNC(=O)c1cc(-c2ccc(Cl)cc2)nn(-c2cccc(F)c2)c1=O` (single isomer, unassigned) [Example 53, 6-(4-Chlorophenyl)-2-(3-fluorophenyl)-N-[2-(S-methylsulfonimidoyl)ethyl]-3-oxo-2,3-dihydropyridazine-4-carboxamide] was 0.843 µM.
As for `O=C(N[C@@H]1C[S+]([O-])C[C@@H]1O)c1cc(-c2ccc(C(F)(F)F)cc2)nn(-c2cccnc2)c1=O` (relative stereo) [Example 33, N-[(cis)-4-hydroxy-1-oxidotetrahydro-thiophen-3-yl]-3-oxo-2-(pyridin-3-yl)-6-[4-(trifluoromethyl)phenyl]-2,3-dihydropyridazine-4-carboxamide], the IC50 amounted to 0.139 µM.
Consider `C[C@@H](CS(C)(=N)=O)NC(=O)c1cc(-c2ccc(C(F)(F)F)cc2)nn(-c2cnn(C)c2)c1=O` (single isomer, unassigned) [Example 40], for which the IC50 turned out to be 0.0803 µM.
With `C[C@@H](CS(C)(=O)=O)NC(=O)c1cc(-c2ccc(C(F)(F)F)cc2)nn(-c2cnn(C)c2)c1=O` [Example 22, 2-(1-Methyl-1H-pyrazol-4-yl)-N-[(2S)-1-(methylsulfonyl)propan-2-yl]-3-oxo-6-[4-(trifluoromethyl)phenyl]-2,3-dihydropyridazine-4-carboxamide], the IC50 amounted to 0.0219 µM.
The value for `C[C@@H](CS(C)(=O)=O)NC(=O)c1cc(-c2ccc(Cl)cc2)nn(-c2cccc(F)c2)c1=O` [Example 2, 6-(4-Chlorophenyl)-2-(3-fluorophenyl)-N-[(2S)-1-(methylsulfonyl)propan-2-yl]-3-oxo-2,3-dihydropyridazine-4-carboxamide] was 0.147 µM; that for `N=S1(=O)C[C@H](O)[C@H](NC(=O)c2cc(-c3ccc(Cl)cc3)nn(-c3cccc(F)c3)c2=O)C1` (single isomer, unassigned) [Example 43, 6-(4-chlorophenyl)-2-(3-fluorophenyl)-N-[(cis)-4-hydroxy-1-imino-1-oxidotetrahydro-1H-1lambda4-thiophen-3-yl]-3-oxo-2,3-dihydropyridazine-4-carboxamide] was 0.0438 µM; that for `CS(=N)(=O)CCNC(=O)c1cc(-c2ccc(Cl)cc2)nn(-c2cccc(F)c2)c1=O` (single isomer, unassigned) [Example 54, 6-(4-Chlorophenyl)-2-(3-fluorophenyl)-N-[2-(S-methylsulfonimidoyl)ethyl]-3-oxo-2,3-dihydropyridazine-4-carboxamide] was 0.581 µM.
As for `C[C@@H](C[S+](C)[O-])NC(=O)c1cc(-c2ccc(Cl)cc2)nn(-c2cnn(C)c2)c1=O` (stereo partly drawn) [Example 49, 6-(4-Chlorophenyl)-2-(1-methyl-1H-pyrazol-4-yl)-N-[(2S)-1-(methylsulfinyl)propan-2-yl]-3-oxo-2,3-dihydropyridazine-4-carboxamide], the IC50 was 0.0264 µM.
For the compound `O=C(N[C@@H]1CS(=O)(=O)C[C@@H]1O)c1cc(-c2ccc(C(F)(F)F)cc2)nn(-c2cnsc2)c1=O` (single isomer, unassigned) [Example 11, (−)-N-[(cis)-4-hydroxy-1,1-dioxidotetrahydro-thiophen-3-yl]-3-oxo-2-(1,2-thiazol-4-yl)-6-[4-(trifluoromethyl)phenyl]-2,3-dihydropyridazine-4-carboxamide], the IC50 came to 0.00346 µM.
Consider `O=C(N[C@H]1CS(=O)(=O)C[C@H]1O)c1cc(-c2ccc(Cl)cc2)nn(-c2cccc(F)c2)c1=O` (single isomer, unassigned) [Example 56, 6-(4-Chlorophenyl)-2-(3-fluorophenyl)-N-[(cis)-4-hydroxy-1,1-dioxidotetrahydrothiophen-3-yl]-3-oxo-2,3-dihydropyridazine-4-carboxamide], for which the half-maximal inhibitory concentration (IC50) amounted to 0.0653 µM.
Regarding `O=C(N[C@@H]1C[S+]([O-])C[C@@H]1O)c1cc(-c2ccc(Cl)cc2)nn(-c2cccc(F)c2)c1=O` (single isomer, unassigned; (+)) [Example 27, (+)-6-(4-chlorophenyl)-2-(3-fluorophenyl)-N-[(cis)-4-hydroxy-1-oxidotetrahydro-thiophen-3-yl]-3-oxo-2,3-dihydropyridazine-4-carboxamide], the concentration for half-maximal inhibition (IC50) was 0.0935 µM.
As to `CSC[C@H](C)NC(=O)c1cc(-c2ccc(C(F)(F)F)cc2)nn(-c2cnn(C)c2)c1=O` [Example 9, 2-(1-Methyl-1H-pyrazol-4-yl)-N-[(2S)-1-(methylsulfanyl)propan-2-yl]-3-oxo-6-[4-(trifluoromethyl)phenyl]-2,3-dihydropyridazine-4-carboxamide], the IC50 was 0.00699 µM.
In the case of `N=S1(=O)C[C@H](O)[C@H](NC(=O)c2cc(-c3ccc(Cl)cc3)nn(-c3cccc(F)c3)c2=O)C1` (single isomer, unassigned) [Example 46, 6-(4-chlorophenyl)-2-(3-fluorophenyl)-N-[(cis)-4-hydroxy-1-imino-1-oxidotetrahydro-1H-1lambda4-thiophen-3-yl]-3-oxo-2,3-dihydropyridazine-4-carboxamide], the IC50 is 0.103 µM.
The value for `O=C(N[C@@H]1C[S+]([O-])C[C@@H]1O)c1cc(-c2ccc(Cl)cc2)nn(-c2cccc(F)c2)c1=O` (single isomer, unassigned; (+)) [Example 31, (+)-6-(4-chlorophenyl)-2-(3-fluorophenyl)-N-[(cis)-4-hydroxy-1-oxidotetrahydro-thiophen-3-yl]-3-oxo-2,3-dihydropyridazine-4-carboxamide] was 0.145 µM; that for `O=C(N[C@@H]1CS(=O)(=O)C[C@@H]1O)c1cc(-c2ccc(C(F)(F)F)cc2)nn(-c2cccc(F)c2)c1=O` (single isomer, unassigned) [Example 14, (+)-2-(3-fluorophenyl)-N-[(cis)-4-hydroxy-1,1-dioxidotetrahydro-thiophen-3-yl]-3-oxo-6-[4-(trifluoromethyl)phenyl]-2,3-dihydropyridazine-4-carboxamide] was 0.00645 µM.
The value for `O=C(N[C@@H]1C[S+]([O-])C[C@@H]1O)c1cc(-c2ccc(Cl)cc2)nn(-c2cccc(F)c2)c1=O` (single isomer, unassigned) [Example 26, 6-(4-chlorophenyl)-2-(3-fluorophenyl)-N-[(cis)-4-hydroxy-1-oxidotetrahydro-thiophen-3-yl]-3-oxo-2,3-dihydropyridazine-4-carboxamide] was 0.0333 µM.
The value for `N=S1(=O)C[C@H](O)[C@H](NC(=O)c2cc(-c3ccc(Cl)cc3)nn(-c3cccc(F)c3)c2=O)C1` (stereo partly drawn) [Example 44, 6-(4-chlorophenyl)-2-(3-fluorophenyl)-N-[(cis)-4-hydroxy-1-imino-1-oxidotetrahydro-1H-1lambda4-thiophen-3-yl]-3-oxo-2,3-dihydropyridazine-4-carboxamide] was 0.0993 µM.

Usually IC50 stands for the concentration at which inhibition is half-maximal.
